Reference: US20150315188A1, “COMPOUNDS AND METHODS FOR TREATMENT OF HYPERTENSION” (MEDIVATION TECHNOLOGIES, INC., priority 2012, published 2015)

Tests used:
[1] = biological target: T1, rat adrenergic α1B receptor (Rattus norvegicus, UniProt P15823); assay: Radioligand binding, adrenergic α1B (Protocol Group A); conditions: 0.1 μM compound, [3H]Prazosin, 0.1 µM
T1 construct: rat adrenergic α1B receptor obtained from Wistar Rat liver; from tissue; host or cells: Wistar rat liver
T1 sequence (P15823 1-515): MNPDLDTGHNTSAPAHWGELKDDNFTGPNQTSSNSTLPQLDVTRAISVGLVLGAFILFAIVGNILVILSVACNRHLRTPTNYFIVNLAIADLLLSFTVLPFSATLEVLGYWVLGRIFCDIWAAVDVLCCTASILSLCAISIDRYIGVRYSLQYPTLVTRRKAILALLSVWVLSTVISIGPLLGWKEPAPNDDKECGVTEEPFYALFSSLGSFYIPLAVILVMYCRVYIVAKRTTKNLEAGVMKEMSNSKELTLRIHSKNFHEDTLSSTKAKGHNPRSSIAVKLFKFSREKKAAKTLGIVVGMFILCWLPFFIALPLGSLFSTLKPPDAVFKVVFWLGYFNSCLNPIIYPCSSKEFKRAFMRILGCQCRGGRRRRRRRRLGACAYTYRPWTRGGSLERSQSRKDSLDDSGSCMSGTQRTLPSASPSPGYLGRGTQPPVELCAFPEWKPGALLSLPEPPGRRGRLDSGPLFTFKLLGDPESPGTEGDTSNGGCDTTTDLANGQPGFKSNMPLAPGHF
Protocol: To evaluate in radioligand binding assays the activity of compounds of the invention, rat adrenergic α1B receptor obtained from Wistar Rat liver (Garcia-S'ainz, J. et al, Biochem. Biophys. Res. Commun. 186:760, 1992; Michel, A. et al, Br. J. Pharmacol. 98:883, 1989) in a modified Tris-HCl buffer (50 mM Tris-HCl buffer, pH 7.4, 0.5 mM EDTA) was used. Compounds of the invention were incubated with 0.25 nM [^3H]Prazosin for 60 min at 25° C. Non-specific binding was estimated in the presence of 10 μM phentolamine. Receptor proteins were filtered and washed, the filters were then counted to determine [^3H]Prazosin specifically bound. Compounds were screened at 1 μM or lower, using 1% DMSO as vehicle. Compounds of the invention were tested in this biochemical assay and percent inhibition of specific binding was determined. Biochemical assay results are presented as the percent inhibition of specific binding in Table B1a.

[2] = biological target: T2, Human adrenergic α2B receptor (Homo sapiens, UniProt P18089); assay: Radioligand binding, adrenergic α2B (Protocol Group A); design: expressed in transfected cells; host or cells: CHO-K1; conditions: 0.03 μM compound, [3H]Rauwolscine, 0.03 µM
T2 sequence (P18089 1-450): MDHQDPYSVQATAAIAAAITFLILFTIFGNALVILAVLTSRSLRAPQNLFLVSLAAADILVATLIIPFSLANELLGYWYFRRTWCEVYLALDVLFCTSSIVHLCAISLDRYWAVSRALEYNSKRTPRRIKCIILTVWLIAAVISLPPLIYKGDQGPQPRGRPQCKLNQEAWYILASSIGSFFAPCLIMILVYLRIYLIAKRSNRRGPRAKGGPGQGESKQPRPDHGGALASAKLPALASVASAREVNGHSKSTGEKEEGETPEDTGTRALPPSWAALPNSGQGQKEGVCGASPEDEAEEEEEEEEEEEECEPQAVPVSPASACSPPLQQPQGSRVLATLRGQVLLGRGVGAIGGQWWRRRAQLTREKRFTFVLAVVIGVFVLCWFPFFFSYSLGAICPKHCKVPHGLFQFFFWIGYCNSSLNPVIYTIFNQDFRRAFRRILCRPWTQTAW
Protocol: To evaluate in radioligand binding assays the activity of compounds of the invention, human recombinant adrenergic α2B receptor expressed in Chinese hamster ovary (CHO) K1 cells (Uhlen, S. et al, Eur. J. Pharmacol. 343(1):93, 1998) in a modified Tris-HCl buffer (50 mM Tris-HCl, pH 7.4, 12.5 mM MgCl2, 1 mM EDTA, 0.2% BSA) was used. Compounds of the invention were incubated with 2.5 nM [3H]Rauwolscine for 60 min at 25° C. Non-specific binding was estimated in the presence of 10 μM Prazosin. Receptor proteins were filtered and washed, the filters were then counted to determine [3H]Rauwolscine specifically bound. Compounds were screened at 1 μM or lower, using 1% DMSO as vehicle. Compounds of the invention were tested in this biochemical assay and percent inhibition of specific binding was determined. Biochemical assay results are presented as the percent inhibition of specific binding in Table B1a.

[3] = biological target: T3, Human adrenergic α2A receptor (Homo sapiens, UniProt P08913); assay: Radioligand binding, adrenergic α2A (Protocol Group A); design: expressed in transfected cells; host or cells: insect Sf9 cells; conditions: 0.1 μM compound, [3H]MK-912, 0.1 µM
T3 sequence (P08913 1-465): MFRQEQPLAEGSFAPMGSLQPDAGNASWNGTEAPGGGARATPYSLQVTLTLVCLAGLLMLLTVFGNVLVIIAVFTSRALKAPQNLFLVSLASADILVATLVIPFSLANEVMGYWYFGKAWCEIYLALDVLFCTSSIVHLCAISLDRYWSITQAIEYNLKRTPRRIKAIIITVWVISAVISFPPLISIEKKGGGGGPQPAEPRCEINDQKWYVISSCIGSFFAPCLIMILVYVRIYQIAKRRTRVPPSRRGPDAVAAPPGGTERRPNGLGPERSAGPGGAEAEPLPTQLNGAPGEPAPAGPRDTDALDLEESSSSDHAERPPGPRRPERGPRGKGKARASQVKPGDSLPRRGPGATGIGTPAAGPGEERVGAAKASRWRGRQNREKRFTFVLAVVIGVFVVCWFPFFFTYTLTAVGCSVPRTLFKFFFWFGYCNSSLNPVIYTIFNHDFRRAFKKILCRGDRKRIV
Protocol: To evaluate in radioligand binding assays the activity of compounds of the invention, human recombinant adrenergic α2A receptor expressed in insect Sf9 cells (Uhlen, S. et al, J. Pharmacol. Exp. Ther. 271:1558, 1994) in a modified Tris-HCl buffer (50 mM Tris-HCl, pH 7.4, 12.5 mM MgCl2, 2 mM EDTA) was used. Compounds of invention were incubated with 1 nM [^3H]MK-912 for 60 min at 25° C. MK912 is (2S-trans)-1,3,4,5′,6,6′,7,12b-octahydro-1′,3′-dimethyl-spiro[2H-benzofuro[2,3-a]quinolizine-2,4′(1′H)-pyrimidin]-2′(3′H)-one hydrochloride. Non-specific binding was estimated in the presence of 10 μM WB-4101 (2-(2,6-Dimethoxyphenoxyethyl)aminomethyl-1,4-benzodioxane hydrochloride). Receptor proteins were filtered and washed, the filters were then counted to determine [^3H]MK-912 specifically bound. Compounds were screened at 1 μM or lower, using 1% DMSO as vehicle. Compounds of the invention were tested in this biochemical assay and percent inhibition of specific binding was determined. Biochemical assay results are presented as the percent inhibition of specific binding in Table B1a.

[4] = biological target: T3, Human adrenergic α2A receptor; assay: β-Arrestin GPCR functional assay, adrenergic α2A (Protocol B); type: cell-based; conditions: β-arrestin, antagonist vs nor-epinephrine EC80
Protocol: (§1) To evaluate the activity of compounds in β-Arrestin GPCR functional assays, recombinant CHO cell line (DiscoveRX), over expressed with human adrenergic α2A receptor were used. The experiment was done with kit of DiscoveRX as per recommended protocol of the supplier. Cells were harvested from culture flask using cell dissociation solution (CDS) and plated at a density of 12,000 cells/well in CP reagent (supplied with the kit) in a half area 96-well white polystyrene plate. After 24 h incubation at 37° C., compounds at various concentrations in 1% (final) DMSO were charged to the cells for 30 min at 37° C. Active nor-epinephrine (-NE) at its EC80 concentrations (270 nM) were then added to the cells and incubated for another 90 min at 37° C. Detection mix was prepared by mixing of Path Hunter cell assay buffer, Emerald II solution and Galactone star solution in a ratio of 19:5:1 and incubated with the cells for 60 min at RT in the dark. The reading was taken in Envision at luminescence mode. Biochemical assay results are presented as the percent Inhibition in Table B2a, or IC50 values in Table B2b.

[5] = biological target: T2, Human adrenergic α2B receptor; assay: β-Arrestin GPCR functional assay, adrenergic α2B (Protocol B); type: cell-based; conditions: β-arrestin, antagonist vs nor-epinephrine EC80; read-out: IC50 Adrenergic α2B
Protocol: as §1, with “α2B” for “α2A”, “(50” for “(270”

[6] = biological target: T2, Human adrenergic α2B receptor; assay: Radioligand binding, adrenergic α2B (Protocol Group B); design: purchased Milipore (Millipore); conditions: Protocol Group B; for Percentage inhibition of ligand binding, Adrenergic α2B (10 nM): 10 nM compound, 0.01 µM; for Percentage inhibition of ligand binding, Adrenergic α2B (30 nM): 30 nM compound, 0.03 µM
How it was run: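 Recombinant human α2B receptor membranes incubated with compounds in 50 mM Tris-HCl pH 7.4, 5 mM MgCl2, 1 mM CaCl2, 0.2% BSA, 1% DMSO vehicle. Non-specific binding defined with 10 μM rauwolscine. Values are percent inhibition of specific binding or estimated Ki.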

[7] = biological target: T3, Human adrenergic α2A receptor; assay: Radioligand binding, adrenergic α2A (Protocol Group B); design: purchased Milipore (Millipore); conditions: Protocol Group B; for Percentage inhibition of ligand binding, Adrenergic α2A (0.1 μM): 0.1 μM compound; for Percentage inhibition of ligand binding, Adrenergic α2A (0.3 μM): 0.3 μM compound
How it was run: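 Membranes from recombinant cells expressing the receptor, in 50 mM Tris-HCl pH 7.4 with 5 mM MgCl2, 1 mM CaCl2, 0.2% BSA; compounds incubated with 2 nM [^3H]MK-912 for 60 min at 25° C. Nonspecific binding defined by 10 μM rauwolscine; filtration, counting; percent inhibition of specific binding, or estimated Ki.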

[8] = biological target: T4, Human adrenergic α1B receptor (Homo sapiens, UniProt P35368); assay: Radioligand binding, adrenergic α1B (Protocol Group B); design: purchased Milipore (Millipore); conditions: Protocol Group B; for Percentage inhibition of ligand binding, Adrenergic α1B (0.1 μM): 0.1 μM compound; for Percentage inhibition of ligand binding, Adrenergic α1B (0.3 μM): 0.3 μM compound
T4 sequence (P35368 1-520): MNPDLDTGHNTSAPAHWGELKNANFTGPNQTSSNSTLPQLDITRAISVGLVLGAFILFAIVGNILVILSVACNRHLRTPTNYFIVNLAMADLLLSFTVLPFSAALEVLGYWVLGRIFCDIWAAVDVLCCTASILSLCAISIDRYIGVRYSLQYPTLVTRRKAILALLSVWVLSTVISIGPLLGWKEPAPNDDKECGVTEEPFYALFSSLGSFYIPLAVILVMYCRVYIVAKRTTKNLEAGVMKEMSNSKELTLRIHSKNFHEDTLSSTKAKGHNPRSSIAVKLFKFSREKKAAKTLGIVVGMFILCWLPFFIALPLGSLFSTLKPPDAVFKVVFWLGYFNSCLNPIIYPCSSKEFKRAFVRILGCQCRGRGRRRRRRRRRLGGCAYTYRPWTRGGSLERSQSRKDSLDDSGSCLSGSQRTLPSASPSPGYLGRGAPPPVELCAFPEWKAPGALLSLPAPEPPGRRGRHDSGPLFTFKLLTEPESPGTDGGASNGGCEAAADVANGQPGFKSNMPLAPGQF
How it was run: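 Recombinant human α1B membranes incubated with test compound and 0.3 nM [3H]prazosin, 60 min at 25 °C, in 50 mM Tris-HCl pH 7.4, 10 mM MgCl2, 1 mM EDTA; nonspecific binding with 10 μM prazosin. Filter-bound radioactivity counted; values are % inhibition of specific binding or estimated Ki.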

percent inhibition of specific binding, Adrenergic α1B [1] | percent inhibition of specific binding, Adrenergic α2B [2] | percent inhibition of specific binding, Adrenergic α2A [3] | IC50 [4] | IC50 [5] | Percentage inhibition of ligand binding, Adrenergic α2B (10 nM) [6] | Percentage inhibition of ligand binding, Adrenergic α2B (30 nM) [6] | Ki ([6]; estimated Ki, read-out: Ki α2B) | Percentage inhibition of ligand binding, Adrenergic α2A (0.1 μM) [7] | Percentage inhibition of ligand binding, Adrenergic α2A (0.3 μM) [7] | Ki ([7]; estimated Ki) | Percentage inhibition of ligand binding, Adrenergic α1B (0.1 μM) [8] | Percentage inhibition of ligand binding, Adrenergic α1B (0.3 μM) [8] | Ki ([8]; estimated Ki) | Percentage inhibition of ligand binding, Adrenergic α2B (0.1 μM) ([6]; 0.1 μM compound, 0.1 µM) | SMILES
−3% | 4% | 0% |  |  |  |  |  |  |  |  |  |  |  |  | Cc1ccc(C(F)Cn2c3c(c4cccnc42)C2CCCN2CC3)cn1 (single isomer, unassigned) [10a]
 |  |  | 0.787 µM | 13 nM | 96% | 99% | 0.91 nM | 85% | 94% | 8.9 nM | 62% | 86% | 26.2 nM |  | Cc1ccc2c(c1F)c1c(n2CC(C)(O)c2cccnc2)CCN2CCCC12 (single isomer, unassigned) [87c]
 |  |  | 7.82 µM | 364 nM | 43% | 71% |  | 7% | 31% |  | 2% | 23% |  | 92% | Cc1ccc2c(c1)c1c(n2CC(C)(O)c2cccnc2)CC2CCCN2C1 (single isomer, unassigned) [38c]
